ChEMBL document CHEMBL5518206, “Hit-to-Lead Identification and Validation of a Triaromatic Pleuromutilin Antibiotic Candidate” (J Med Chem, 2024)
≈ marks a conversion by molar mass, not a printed value. Calls of active or inactive are those of the source. The rule behind the calls is not given here.

Assays:
in vitro [1] = details: human, liver microsomes
hERG (KCNH2) = hERG (KCNH2) (Homo sapiens, UniProt Q12809); assay: Inhibition of hERG expressed in HEK293 cells assessed as tail current at 60 uM measured after 8 mins by automated whole-cell Qpatch Clamp assay relative to control; details: HEK293 cells that express hERG
[2] = Apparent permeability from apical to basolateral side in human Caco-2 cells at 280 uM measured upto 120 mins by LC-MS analysis; assay type: ADME, cell-based
[3] = Plasma protein binding in human at 5 to 15 uM incubated for 5 hrs by LC-MS analysis; assay type: ADME, cell-free; details: dose 5-15 µM, read-out: PPB (converted)
Staphylococcus aureus [4] = assay: Antibacterial activity against multi drug-resistant Staphylococcus aureus USA300 FPR3757 assessed as reduction in bacterial growth at 4 times of MIC concentration measured after 6 hrs by time-kill assay; assay type: functional
in vitro [5] = details: pig, liver microsomes
in vitro [6] = details: mouse, liver microsomes
Streptococcus pneumoniae = assay: Antibacterial activity against Streptococcus pneumoniae assessed as inhibition of visible growth incubated for 20 to 24 hrs by microbroth serial dilution assay; assay type: functional; details: time 20-24 hrs, read-out: MIC100
Enterococcus faecium [7] = assay: Antibacterial activity against Linezolid/Ampicillin/ciprofloxacin/Vancomycin-resistant Enterococcus faecium assessed as inhibition of visible growth incubated for 20 to 24 hrs by microbroth serial dilution assay; assay type: functional; details: time 20-24 hrs, read-out: MIC100
MDCK-MDR1 = assay: Cytotoxicity against MDCKII-MDR1 cells assessed as cell viability at 100 uM measured by MTT assay; assay type: toxicity, cell-based, Canis lupus familiaris; details: dog, mdck-mdr1, 100 µM
[8] = Efflux ratio of apparent permeability from basolateral to apical side over apical to basolateral side in human Caco-2 cells at 280 uM and measured after 120 mins by LC-MS analysis; assay type: ADME, cell-based
Enterococcus faecium [9] = assay: Antibacterial activity against Vancomycin-resistant Enterococcus faecium assessed as inhibition of visible growth incubated for 20 to 24 hrs by microbroth serial dilution assay; assay type: functional; details: time 20-24 hrs, read-out: MIC100
in vitro [10] = details: mouse, liver microsomes; remark: listed apart in the source
Staphylococcus aureus [11] = assay: Induction of resistant development in lefamulin 5 passages resistance developed Staphylococcus aureus USA300 FPR3757 assessed as fold increase in MIC at sub-MIC concentration measured after 13 passages with conjugate by serial passage assay; assay type: functional
in vitro [12] = details: pig, liver microsomes; remark: listed apart in the source
Cytochrome P450 3A4 = Cytochrome P450 3A4 (Homo sapiens, UniProt P08684); assay: Inhibition of human CYP3A4 incubated for 60 mins by red fluorescent-probe-based microsomal assay; assay type: ADME
[13] = Solubility of the compound in Dulbecco's PBS at 20 degree C measured after 24 hrs
Staphylococcus aureus [14] = assay: Antibacterial activity against multi drug-resistant Staphylococcus aureus USA300 FPR3757 assessed as reduction in bacterial growth of original inoculum at 4 times of MIC concentration measured after 24 hrs by time-kill assay; assay type: functional
Staphylococcus aureus [15] = assay: Antibacterial activity against multi drug-resistant Staphylococcus aureus USA300 FPR3757 assessed as reduction in bacterial growth of original inoculum at 4 times of MIC concentration measured after 24 hrs by time-kill assay relative to control; assay type: functional
Staphylococcus aureus [16] = assay: Antibacterial activity against multi drug-resistant Staphylococcus aureus USA300 FPR3757 assessed as reduction in bacterial growth at 1 times of MIC concentration measured at first 12 hrs by time-kill assay; assay type: functional
in vitro [17] = details: human, liver microsomes; remark: listed apart in the source
Enterococcus faecalis = assay: Antibacterial activity against Enterococcus faecalis assessed as inhibition of visible growth incubated for 20 to 24 hrs by microbroth serial dilution assay; assay type: functional; details: time 20-24 hrs, read-out: MIC100
Staphylococcus aureus [18] = assay: Induction of resistant development in linezolid 5 passages resistance developed Staphylococcus aureus USA300 FPR3757 assessed as fold increase in MIC at sub-MIC concentration measured after 28 passages with conjugate by serial passage assay; assay type: functional
[19] = Apparent permeability from basolateral to apical side in human Caco-2 cells at 280 uM measured upto 120 mins by LC-MS analysis; assay type: ADME, cell-based
[20] = Inhibition of P-gp efflux in MDCKII-MDR1 cells using calcein-AM as substrate assessed as intracellular calcein fluorescence preincubated for 15 mins followed by substrate addition and measured by fluorescence based assay; assay type: cell-based; details: Canis lupus familiaris
[21] = Apparent permeability from apical to basolateral side in human Caco-2 cells at 100 uM measured upto 120 mins by LC-MS analysis; assay type: ADME, cell-based
[22] = biological target: Voltage-gated inwardly rectifying potassium channel KCNH2 (Homo sapiens, UniProt Q12809); assay: Inhibition of hERG expressed in HEK293 cells assessed as tail current measured after 8 mins by automated whole-cell Qpatch Clamp assay
[23] = Efflux ratio of apparent permeability from basolateral to apical side over apical to basolateral side in human Caco-2 cells at 100 uM and measured after 120 mins by LC-MS analysis; assay type: ADME, cell-based
[24] = Apparent permeability from basolateral to apical side in human Caco-2 cells at 100 uM measured upto 120 mins by LC-MS analysis; assay type: ADME, cell-based
Staphylococcus aureus [25] = assay: Antibacterial activity against multi drug-resistant Staphylococcus aureus USA300 FPR3757 assessed as inhibition of visible growth incubated for 20 to 24 hrs by microbroth serial dilution assay; assay type: functional; details: time 20-24 hrs, read-out: MIC100
Staphylococcus aureus [26] = assay: Induction of resistant development in linezolid 5 passages resistance developed Staphylococcus aureus USA300 FPR3757 assessed as fold increase in MIC at sub-MIC concentration measured after 13 passages with conjugate by serial passage assay; assay type: functional
Listeria = assay: Antibacterial activity against Listeria assessed as inhibition of visible growth incubated for 20 to 24 hrs by microbroth serial dilution assay; assay type: functional, organism-based; details: time 20-24 hrs
[27] = AUC (0 to infinity) in NMRI female mouse at 20 mg/kg, sc by HPLC analysis; assay type: ADME, organism-based; details: in vivo
[28] = Bioavailability in NMRI female mouse at 20 mg/kg, sc by HPLC analysis; assay type: ADME, organism-based; details: in vivo
[29] = Tmax in pig urine at 10 mg/kg, po measured upto 240 mins by LC-MS/MS analysis; assay type: ADME, organism-based, Sus scrofa
[30] = Volume of distribution in pig plasma at 3 mg/kg, iv measured upto 240 mins by LC-MS/MS analysis; assay type: ADME, organism-based, Sus scrofa
[31] = AUC (0 to infinity) in pig plasma at 10 mg/kg, po measured upto 240 mins by LC-MS/MS analysis; assay type: ADME, organism-based, Sus scrofa; details: in vivo, 4 h
[32] = Half life in NMRI female mouse at 60 mg/kg, sc by HPLC analysis; assay type: ADME, organism-based; details: in vivo
[33] = Half life in pig plasma at 3 mg/kg, iv measured upto 240 mins by LC-MS/MS analysis; assay type: ADME, organism-based, Sus scrofa
[34] = Elimination rate constant in NMRI female mouse at 20 mg/kg, sc by HPLC analysis; assay type: ADME, organism-based; details: in vivo
[35] = AUC (0 to infinity) in NMRI female mouse at 30 mg/kg, po by HPLC analysis; assay type: ADME, organism-based; details: in vivo
[36] = Half life in pig urine at 10 mg/kg, po measured upto 240 mins by LC-MS/MS analysis; assay type: ADME, organism-based, Sus scrofa

Chain of Cytochrome P450 3A4 (P08684 whole entry): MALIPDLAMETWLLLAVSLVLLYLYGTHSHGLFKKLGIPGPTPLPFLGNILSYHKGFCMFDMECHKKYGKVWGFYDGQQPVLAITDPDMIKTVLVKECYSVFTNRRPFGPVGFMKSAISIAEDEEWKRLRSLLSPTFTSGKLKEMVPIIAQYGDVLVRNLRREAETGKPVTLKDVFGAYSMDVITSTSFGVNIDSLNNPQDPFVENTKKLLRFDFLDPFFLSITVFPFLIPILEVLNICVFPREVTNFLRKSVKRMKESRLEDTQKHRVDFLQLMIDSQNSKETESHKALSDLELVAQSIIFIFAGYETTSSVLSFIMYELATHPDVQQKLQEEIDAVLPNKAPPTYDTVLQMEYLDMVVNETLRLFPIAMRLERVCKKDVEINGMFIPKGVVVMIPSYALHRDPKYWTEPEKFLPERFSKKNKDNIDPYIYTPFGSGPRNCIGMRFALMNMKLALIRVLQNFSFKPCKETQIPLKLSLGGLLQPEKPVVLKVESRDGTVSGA
Chain of Voltage-gated inwardly rectifying potassium channel KCNH2 (Q12809 whole entry): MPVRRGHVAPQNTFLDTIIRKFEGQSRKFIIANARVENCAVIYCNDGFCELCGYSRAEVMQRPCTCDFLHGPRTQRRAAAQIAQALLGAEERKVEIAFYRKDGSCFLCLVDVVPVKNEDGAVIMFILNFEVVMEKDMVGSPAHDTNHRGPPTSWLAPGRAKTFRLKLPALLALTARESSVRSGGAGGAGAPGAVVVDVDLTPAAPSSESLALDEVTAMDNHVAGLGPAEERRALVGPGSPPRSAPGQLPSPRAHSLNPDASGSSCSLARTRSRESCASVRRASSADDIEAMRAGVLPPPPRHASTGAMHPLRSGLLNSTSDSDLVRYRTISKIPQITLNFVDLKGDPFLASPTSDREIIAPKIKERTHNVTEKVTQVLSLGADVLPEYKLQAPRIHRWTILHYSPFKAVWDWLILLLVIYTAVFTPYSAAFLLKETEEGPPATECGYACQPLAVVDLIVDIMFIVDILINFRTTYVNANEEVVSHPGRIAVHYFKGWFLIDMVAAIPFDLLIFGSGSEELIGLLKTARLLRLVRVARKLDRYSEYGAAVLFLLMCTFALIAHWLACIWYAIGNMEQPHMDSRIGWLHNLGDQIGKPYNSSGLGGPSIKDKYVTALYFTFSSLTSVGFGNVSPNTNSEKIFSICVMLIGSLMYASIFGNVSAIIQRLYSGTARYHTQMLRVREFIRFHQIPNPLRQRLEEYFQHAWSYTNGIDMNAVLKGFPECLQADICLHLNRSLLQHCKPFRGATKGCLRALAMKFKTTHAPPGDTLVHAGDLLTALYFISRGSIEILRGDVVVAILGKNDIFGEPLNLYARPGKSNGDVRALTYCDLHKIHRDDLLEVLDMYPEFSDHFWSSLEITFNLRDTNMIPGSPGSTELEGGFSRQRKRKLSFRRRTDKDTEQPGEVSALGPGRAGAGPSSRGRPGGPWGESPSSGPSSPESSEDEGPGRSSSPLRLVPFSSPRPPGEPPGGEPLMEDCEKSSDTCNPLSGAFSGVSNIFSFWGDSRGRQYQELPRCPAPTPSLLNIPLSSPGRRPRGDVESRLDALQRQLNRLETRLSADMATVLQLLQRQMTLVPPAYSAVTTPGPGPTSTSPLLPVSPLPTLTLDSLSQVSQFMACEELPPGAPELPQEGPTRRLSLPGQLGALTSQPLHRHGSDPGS
Chain of hERG (KCNH2) (Q12809 whole entry): as above

Row | Structure (SMILES) | CLint scaled at 0.5 h, 1 µM (in vitro [1]) [mL/min/kg] | inhibition at 8 min, 60 µM (hERG (KCNH2)) [%] | Papp A→B at 2 h, 280 µM [2] [×10⁻⁶ cm/s] | fraction unbound at 5 h, up to 15 µM [3] | Activity (Staphylococcus aureus [4]) [log10CFU/ml] | half-life at 0.5 h, 1 µM (in vitro [5]) [min] | CLint scaled at 0.5 h, 1 µM (in vitro [6]) [mL/min/kg] | MIC (Streptococcus pneumoniae) [µg/mL] | MIC (Enterococcus faecium [7]) [µg/mL] | Activity (MDCK-MDR1) | efflux ratio at 2 h, 280 µM [8] | MIC (Enterococcus faecium [9]) [µg/mL] | half-life at 0.5 h, 1 µM (in vitro [10]) [min] | CLint scaled at 0.5 h, 1 µM (in vitro [12]) [mL/min/kg] | IC50 (Cytochrome P450 3A4) [µM] | solubility at 24 h [13] [µM] | Activity (Staphylococcus aureus [14]) [log10CFU/ml] | inhibition (INH) (Staphylococcus aureus [15]) [%] | Activity (Staphylococcus aureus [16]) [log10CFU/ml] | half-life at 0.5 h, 1 µM (in vitro [17]) [min] | other results
1 | C=C[C@]1(C)C[C@@H](OC(=O)CS[C@@H]2CC[C@@H](N)C[C@H]2O)[C@]2(C)[C@H](C)CC[C@]3(CCC(=O)[C@H]32)[C@@H](C)[C@@H]1O [LEFAMULIN] | 1460 | 32.8 | 3.19 | 0.34 | 2.5 | 15.3 | 478 | 0.25 (≈ 0.492 µM) | 0.12 (≈ 0.236 µM) | Non-Toxic | 3.9 | 0.12 (≈ 0.236 µM) | 11.5 | 359 | 0.75 | 1920 (≈ 973 µg/mL) | 3 | 99.9 | 2 | 4.3 | fold change (FC) (Staphylococcus aureus [11]): 32; MIC (Enterococcus faecalis): 0.06 µg/mL (≈ 0.118 µM); fold change (FC) (Staphylococcus aureus [18]): 32; Papp B→A at 2 h, 280 µM [19]: 12.5 ×10⁻⁶ cm/s; IC50 [20]: 43 µM; Papp A→B at 2 h, 100 µM [21]: 0.63 ×10⁻⁶ cm/s; IC50 [22]: 126 µM; efflux ratio at 2 h, 100 µM [23]: 40.8; Papp B→A at 2 h, 100 µM [24]: 25.7 ×10⁻⁶ cm/s; MIC (Staphylococcus aureus [25]): 0.12 µg/mL (≈ 0.236 µM); fold change (FC) (Staphylococcus aureus [26]): 16; Activity (Listeria): inactive
2 | C=C[C@]1(C)C[C@@H](OC(=O)Cn2cc(-c3ccc(Cn4cnc5c(N6CCNCC6)ncnc54)nc3)nn2)[C@]2(C)[C@H](C)CC[C@]3(CCC(=O)[C@H]32)[C@@H](C)[C@@H]1O | 1710 | 27.4 | 2.12 | 0.27 | ~3 | 1.3 | 929 | 0.03 (≈ 0.0415 µM) | 0.12 (≈ 0.166 µM) | Non-Toxic | 2.5 | 0.03 (≈ 0.0415 µM) | 5.9 | 4200 | 0.41 | 114 (≈ 82.4 µg/mL) | 3 | 99.9 | 2 | 3.7 | AUC [27]: 222 µg/mL/min; bioavailability [28]: 52%; Tmax [29]: 60 min; Vd [30]: 3.46 L/kg; AUC [31]: 7.1 µg/mL/min; half-life [32]: 114 min; MIC (Enterococcus faecalis): 0.12 µg/mL (≈ 0.166 µM); half-life [33]: 75 min; k el [34]: 9.33e-05 s⁻¹; Papp B→A at 2 h, 280 µM [19]: 5.34 ×10⁻⁶ cm/s; IC50 [20]: 47 µM; Papp A→B at 2 h, 100 µM [21]: 0.48 ×10⁻⁶ cm/s; IC50 [22]: > 200 µM; efflux ratio at 2 h, 100 µM [23]: 48; Papp B→A at 2 h, 100 µM [24]: 23 ×10⁻⁶ cm/s; MIC (Staphylococcus aureus [25]): 0.12 µg/mL (≈ 0.166 µM); AUC [35]: 1.6 µg/mL/min; half-life [36]: 132 min
